From US20260042754A1, “Substituted Bicyclic Heteroaryl Sulfonamide Derivatives for the Treatment of Cancer” (NODUS ONCOLOGY LIMITED, priority 2022, published 2026)
Where two headings read alike, the source gives them in different places.

Legend:
[1] = molecular target: Recombinant His-tagged human PARG protein (Homo sapiens (Human), UniProt Q86W56); test: PARG enzymatic assay (TFMU-ADPr fluorescence); format: biochemical; conditions: 1 nM enzyme, 200 μM TFMU-ADPr, read after 30 minutes
Method in brief: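 Sf21-expressed His-tagged human PARG (1 nM) preincubated 15 min with compound (8-point series, 0.5% DMSO) in pH 7.4 phosphate/KCl/β-mercaptoethanol buffer, then 200 μM TFMU-ADPr added. Fluorescence (ex 380/em 535 nm) read after 30 min; IC50 from 4-parameter logistic fit, no-enzyme control as bottom.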

NCI-H1650 = test: Modified cell proliferation assay (CellTiter-Glo), NCI-H1650; format: cell-based; conditions: modified protocol, 384-well, 300 cells per well, 120 h, highest concentration tested 30000 nM, read-out: NCI-H1650 GI50 (high PARG dependency)
Method in brief: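 NCI-H1650 or RMUG-S cells seeded at 300 cells/well in RPMI1640 with 10% FCS, compounds added after 24 h, then 120 h at 37 °C/5% CO2. Viability read by CellTiter-Glo luminescence; IC50 from fitted dose-response inflection point. Z′≥0.5 required.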

RMUG-S = test: Modified cell proliferation assay (CellTiter-Glo), RMUG-S, Examples 12-44; format: cell-based; conditions: Examples 12-44: modified protocol, 384-well, 300 cells per well, 120 h; highest concentration tested 9000 nM; read-out: RMUG-S GI50 (high PARG dependency)
Procedure: The cell proliferation assay protocol was modified and used for RMUG-S for Examples 12-44, and subsequently used to test Examples 1-44 in the NCI-H1650 cell line.
NCI-H1650 (ATCC, #CRL-5883) or RMUG-S were seeded on day 1 at 300 cells per well in a 384-well plate (Greiner, #781080) that assure assay linearity and optimal signal intensity in 25 μL of RPMI1640 media (Pan Biotech, #P04-22100) containing 10% FCS (Capricorn, #FBS-11A; Lot. CP22-5141) and 1% Glutamine (Pan Biotech, #P04-80100). After incubation for 24 h in humidified chambers at 37° C./5% CO2, compounds/DMSO were dispensed at different concentrations using an Echo 520 (Beckman Coulter). Cells were further incubated for 120 h at 37° C. and 5% CO2. Cells treated with the compound vehicle DMSO were used as negative controls and cells treated with 10 μM Staurosporine (LC Laboratories, #S-9300) served as positive controls.
At day 6 the CellTiter Glo Reagent was prepared according to the instructions of the kit (Promega Inc.): Reagent was mixed 1:1 with cell culture medium. Thereon, mixture and assay plates were equilibrated at room temperature for 20 min. Equal volumes of the reagent-medium-mixture were added to the volume of culture medium present in each well. The plates were mixed at […] for 2 minutes on an orbital shaker (Timix5, Edmund Buehler GmbH). The microplates were then incubated at room temperature for 10 minutes for stabilization of the luminescent signal. Following incubation, the luminescence was recorded on a Victor X5 microplate reader (Perkin Elmer) using a 200 ms integration time. The data was then analyzed with Excel using the XLFIT Plugin (dose response Fit 205) for determination of the concentration necessary for half-maximal inhibition (i.e. the inflection point of the fitted curve).
As quality control the Z′-factor was calculated from 16 positive and negative control values. Only assay results showing a Z′-factor≥0.5 were used for further analysis.

[2] = molecular target: human PARG (PARG-NanoLuc fusion in HEK293T cells) (Homo sapiens (Human), UniProt Q86W56); test: PARG NanoBRET-based cellular target engagement assay; format: cell-based; conditions: HEK293T cells transfected with PARG-NanoLuc, NanoBRET probe 0.89 μM, 2 hours; read-out: PARG TE IC50
Method in brief: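 HEK293T cells transiently expressing full-length human PARG with C-terminal NanoLuc, plated 24 h, then given compound (8-point series, 0.5% DMSO) for 15 min at room temperature. NanoBRET tracer added at 0.89 μM final, 2 h at 37° C.; BRET ratio (460/645 nm) fitted by 4-parameter logistic to give IC50.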

Chain of human PARG (PARG-NanoLuc fusion in HEK293T cells) (Q86W56 whole entry, the tested form may be a part): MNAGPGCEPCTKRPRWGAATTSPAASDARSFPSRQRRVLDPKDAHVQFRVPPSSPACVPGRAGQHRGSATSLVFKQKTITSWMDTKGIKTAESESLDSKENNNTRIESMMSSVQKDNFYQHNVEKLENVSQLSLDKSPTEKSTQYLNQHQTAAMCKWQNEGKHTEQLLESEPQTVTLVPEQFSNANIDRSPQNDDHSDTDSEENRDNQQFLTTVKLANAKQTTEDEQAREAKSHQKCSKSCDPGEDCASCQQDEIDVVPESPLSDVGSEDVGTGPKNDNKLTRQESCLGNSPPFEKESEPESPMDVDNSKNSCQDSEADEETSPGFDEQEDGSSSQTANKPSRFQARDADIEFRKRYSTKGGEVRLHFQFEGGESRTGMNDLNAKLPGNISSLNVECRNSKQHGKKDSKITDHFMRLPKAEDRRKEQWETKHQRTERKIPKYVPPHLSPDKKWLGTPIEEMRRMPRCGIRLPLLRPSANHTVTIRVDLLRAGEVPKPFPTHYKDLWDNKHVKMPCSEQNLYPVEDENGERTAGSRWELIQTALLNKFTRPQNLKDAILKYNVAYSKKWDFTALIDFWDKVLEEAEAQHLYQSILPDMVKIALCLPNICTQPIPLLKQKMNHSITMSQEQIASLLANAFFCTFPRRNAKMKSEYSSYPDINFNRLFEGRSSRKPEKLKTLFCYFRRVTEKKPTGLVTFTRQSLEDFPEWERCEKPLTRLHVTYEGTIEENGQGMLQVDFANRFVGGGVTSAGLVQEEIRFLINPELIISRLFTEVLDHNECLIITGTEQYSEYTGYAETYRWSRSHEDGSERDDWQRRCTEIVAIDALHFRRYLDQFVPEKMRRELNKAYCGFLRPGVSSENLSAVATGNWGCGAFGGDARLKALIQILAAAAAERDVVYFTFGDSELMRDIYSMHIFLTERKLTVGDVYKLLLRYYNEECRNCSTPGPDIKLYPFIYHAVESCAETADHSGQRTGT
Chain of Recombinant His-tagged human PARG protein (Q86W56 whole entry): as the sequence (Q86W56 whole entry, the tested form may be a part) above

| SMILES | IC50 [1] [nM] | GI50 (NCI-H1650; Homo sapiens, NCI-H1650) [nM] | GI50 (RMUG-S) [nM] | IC50 [2] [nM] | GI50 (NCI-H1650) [nM] |
| --- | --- | --- | --- | --- | --- |
| CO/N=c1\[nH]c2c(C3CCN(C(=O)C4(C)CC4)[C@H](C)C3)cc(S(=O)(=O)NC3(C)CC3)cc2c(=O)n1Cc1cnn(C)c1 (stereo partly drawn) [Example 27, (2E)-2-methoxyimino-N-(1-methylcyclopropyl)-3-[(1-methylpyrazol-4-yl)methyl]-4-oxo-8-[(2R)-2-methyl-1-(1-methylcyclopropanecarbonyl)-4-piperidyl]-1H-quinazoline-6-sulfonamide] | < 30 | < 500 | < 500 | < 30 |  |
| CO/N=c1\[nH]c2c(C3CCN(C(C)=O)[C@H](C)C3)cc(S(=O)(=O)NC3(C)CC3)cc2c(=O)n1Cc1cnn(C)c1 (stereo partly drawn) [Example 26, (2E)-2-methoxyimino-N-(1-methylcyclopropyl)-3-[(1-methylpyrazol-4-yl)methyl]-4-oxo-8-[(2R)-1-acetyl-2-methyl-4-piperidyl]-1H-quinazoline-6-sulfonamide] | < 30 | 500 to 2000 | 2000 to 9000 | < 30 |  |
| CO/N=c1\[nH]c2c(C3=C[C@@H](C)N(C)CC3)cc(S(=O)(=O)NC3(C)CC3)cc2c(=O)n1Cc1cnn(C)c1 [Example 28, (2E)-2-methoxyimino-N-(1-methylcyclopropyl)-3-[(1-methylpyrazol-4-yl)methyl]-4-oxo-8-[(2R)-1,2-dimethyl-3,6-dihydro-2H-pyridin-4-yl]-1H-quinazoline-6-sulfonamide/(2E)-2-methoxyimino-N-(1-methylcyclopropyl)-3-[(1-methylpyrazol-4-yl)methyl]-4-oxo-8-[(6R)-1,6-dimethyl-3,6-dihydro-2H-pyridin-4-yl]-1H-quinazoline-6-sulfonamide] | < 30 |  | 500 to 2000 | < 30 | < 500 |
| CO/N=c1\[nH]c2c(C3=C[C@@H](C)N(C(C)=O)CC3)cc(S(=O)(=O)NC3(C)CC3)cc2c(=O)n1Cc1cnn(C)c1 [Example 29, (2E)-2-methoxyimino-N-(1-methylcyclopropyl)-3-[(1-methylpyrazol-4-yl)methyl]-4-oxo-8-[(2R)-1-acetyl-2-methyl-3,6-dihydro-2H-pyridin-4-yl]-1H-quinazoline-6-sulfonamide/(2E)-2-methoxyimino-N-(1-methylcyclopropyl)-3-[(1-methylpyrazol-4-yl)methyl]-4-oxo-8-[(6R)-1-acetyl-6-methyl-3,6-dihydro-2H-pyridin-4-yl]-1H-quinazoline-6-sulfonamide] | < 30 |  | 500 to 2000 | < 30 | 500 to 2000 |
